Measured values published in patent US11246856B2, “Methods of treating resistant cancers” (University of Maryland, Baltimore, priority 2017, dated 2022).
Entries after “also recorded” stand apart in the source; their conditions may differ.

Tests used:
[1] = test system: PLX4032-resistant SK-MEL-5, SK-MEL-28 and WM3248 cells; experiment: Matrigel invasion, other PLX4032-resistant melanoma lines; format: cell-based; settings: PLX4032-resistant SK-MEL-5, SK-MEL-28, WM3248; FIGS. 5C, 5F
Experimental: (§1) Matrigel (BD Biolabs) was diluted in 0.01 M Tris-HCL/0.7% NaCl, filter-sterilized and 0.1 ml was used to cover the membrane in BD BioCoat cell inserts (#353097, […], 24 well format, membrane growth area=0.33 cm^2). Cells 25,000/well were plated in […] of growth media containing 1% FCS atop the Matrigel. Growth media containing 10% FCS was added to the lower well and cells were incubated overnight at 37 C. The following day, excess cells from the top side of the membrane were removed with a cotton swab, and the membrane was rinsed in phosphate-buffered saline, fixed with 4% paraformaldehyde for 10 minutes, washed and stained in […] DAPI for 10 minutes to visualize the cells. The underside of the membrane was photographed with an inverted fluorescent microscope to count the number of cells that had migrated through the Matrigel layer (38).
(§2) A375, SK-MEL-5 and SK-MEL-28 cell lines were maintained in DMEM growth medium containing 10% FCS, 2 mM L-glutamine and 1 mM sodium pyruvate. […]
(§3) The impact of verteporfin on additional PLX4032 resistant melanoma cancer cell lines was examined. […] To determine whether YAP1 and TAZ can antagonize PLX4032 action, constitutively active YAP1 and TAZ were expressed in wild-type SK-MEL-28 cells and the impact on cell proliferation was monitored.

A375 cells [2] = experiment: Matrigel invasion assay, A375; format: cell-based
Experimental: as §1

A375-PLX-R cells [3] = experiment: Matrigel invasion assay, A375-PLX-R; format: cell-based; design: suppression of matrigel invasion at higher verteporfin concentrations: dose or concentration left out as unconfirmed
Experimental: as §1
(§4) A375, SK-MEL-5 and SK-MEL-28 cell lines were maintained in DMEM growth medium containing 10% FCS, 2 mM L-glutamine and 1 mM sodium pyruvate. The WM3248 cells were maintained in MCDB153:L15 (4:1) growth medium containing 2% FCS, […] insulin and 1.68 mM CaCl2. To create PLX4032-resistant cells, A375, SK-MEL-5, SK-MEL-28 and WM3248 cells were treated with […] in monolayer culture in growth medium for several weeks. The surviving cells were then expanded and cultured in increasing doses of PLX4032 up to […]. The resulting PLX4032-resistant cells, designated PLX4032-resistant (e.g., A375-PLX-R) were routinely maintained in the presence of […] PLX4032.

[4] = test system: A375 spheroid cell-derived tumors; experiment: Tumor xenograft assay, A375 spheroid cell-derived tumors; format: in vivo, NSG mice
Experimental: (§5) Cells were grown for ten days as spheroids and a single cell suspension, prepared by trypsin digestion, was resuspended in phosphate buffered saline containing 30% Matrigel and 100 μl containing 0.1 million cells were injected subcutaneously at the two front flanks of NOD/scid/IL2 receptor gamma-knockout mice (NSG mice) using a 26.5 gauge needle. PLX4032 was dissolved in phosphate-buffered saline containing 10% DMSO and delivered at 20 mg/kg by oral gavage in […] three times per week (M/W/F). Verteporfin was dissolved in phosphate-buffered saline containing 10% DMSO and 0-100 mg/kg was delivered by intraperitoneal injection of […] three times per week (M/W/F). Five mice were used per group (two tumors per mouse) and treatment was initiated two days after tumor cell injection. Tumor growth was monitored by measuring tumor diameter and calculating tumor volume using the formula, volume=4/3π×(diameter/2)^3. Mice were euthanized by injection of 250 μl of a 2.5% stock of Avertin per mouse followed by cervical dislocation of the neck. Tumor samples were harvested to prepare extract for immunoblot and sections for immunostaining. These experiments were reviewed and approved by the University of Maryland-Baltimore Institutional Animal Care and Use Committee. The plotted values are mean±SEM and significance were determined using the students t-test.

A375 cells [5] = experiment: Spheroid formation assay, A375; format: cell-based
Experimental: (§6) Cancer cells were maintained under attached conditions in growth media containing DMEM (Invitrogen, Frederick, Md.) supplemented with 4.5 mg/ml D-glucose, […] L-glutamine, 100 mg/ml sodium pyruvate, and 5% fetal calf serum. For spheroid culture, monolayer cultures were dissociated with 0.25% trypsin and the cells were collected by centrifugation, and resuspended in spheroid media, consisting of DMEM/F12 (1:1) (DMT-10-090-CV, Mediatech INC, Manassa, Va.) containing 2% B27 serum-free supplement (17504-044, Invitrogen, Frederick, Md.) 20 ng/ml EGF (E4269, Sigma, St. Louis), 0.4% bovine serum albumin (B4287, Sigma) and […] insulin (19278 Sigma, St. Louis, Mo.) and plated at 40,000 cells per 9.6 cm^2 well in six well ultra-low attachment Costar cluster dishes (4371, Corning, Tewksbury, Mass.). Parallel cultures were plated in spheroid media on conventional plastic dishes for growth as monolayer cultures.

[6] = test system: PLX4032-resistant SK-MEL-5, SK-MEL-28 and WM3248 cells; experiment: Spheroid formation, other PLX4032-resistant melanoma lines; format: cell-based; settings: PLX4032-resistant SK-MEL-5, SK-MEL-28, WM3248; FIGS. 5B, 5E
Experimental: as §6, §2, §3

A375-PLX-R cells [7] = experiment: Spheroid formation assay, A375-PLX-R; format: cell-based
Experimental: as §6, §4

[8] = test system: A375-PLX-R spheroid cell-derived tumors; experiment: Tumor xenograft assay, A375-PLX-R spheroid cell-derived tumors; format: in vivo, NSG mice
Experimental: as §5

## CCCS(=O)(=O)Nc1ccc(F)c(C(=O)c2c[nH]c3ncc(-c4ccc(Cl)cc4)cc23)c1F [PLX4032]
[1]
  matrigel invasion: did not reduce
A375 cells [2]; A375, PLX4032 treatment
  matrigel invasion: not suppressed; also recorded: did not impact
A375-PLX-R cells [3]; A375-PLX-R, PLX4032 treatment
  matrigel invasion: not suppressed; also recorded: did not impact
[4]; PLX4032 20 mg/kg oral gavage three times per week, FIG. 6B
  tumor growth: suppressed
[4]; PLX4032-treated A375 tumors, FIG. 6C
  p21Cip1 level in tumors: slightly elevated
A375 cells [5]; A375 cells, FIGS. 2A-2B
  spheroid formation: suppressed
[6]
  spheroid formation: did not reduce
A375-PLX-R cells [7]; 0-1 μM PLX4032, no verteporfin, FIG. 5A legend
  A375-PLX-R spheroid formation: does not suppress
A375-PLX-R cells [7]; 0-1 mM PLX4032, no verteporfin, FIG. 5A
  A375-PLX-R spheroid formation: did not suppress
A375-PLX-R cells [7]; A375-PLX-R cells, FIGS. 2A-2B
  spheroid formation: not
[8]; PLX4032 20 mg/kg in the presence of verteporfin
  ERK1/2-P level in tumors: reduced
[8]; PLX4032 20 mg/kg oral gavage three times per week, absence of verteporfin, 20 mg/kg
  tumor growth / tumor formation: did not suppress

## verteporfin
[1]
  matrigel invasion: reduced
A375 cells [2]; A375 (FIG. 4D), above 0.5-1 mM
  suppression of matrigel invasion at higher verteporfin concentrations: nearly complete
A375 cells [2]; A375, FIG. 4D legend, read-out: verteporfin concentration giving 50% suppression of matrigel invasion
  IC50: 500 to 1000 nM
A375-PLX-R cells [3]; A375-PLX-R (FIG. 4E)
  suppression of matrigel invasion at higher verteporfin concentrations: nearly complete
A375-PLX-R cells [3]; A375-PLX-R, FIG. 4E legend, read-out: verteporfin concentration giving 50% suppression of matrigel invasion
  IC50: 500 to 1000 nM
A375 cells [5]; A375, FIG. 4A legend, read-out: verteporfin concentration suppressing spheroid formation by 50%
  IC50: 100 to 250 nM
A375 cells [5]; A375, above 0.1-0.25 mM
  spheroid formation at higher verteporfin concentrations: nearly completely inhibited
[6]
  spheroid formation: reduced
A375-PLX-R cells [7]; A375-PLX-R, FIG. 4B legend, read-out: verteporfin concentration suppressing spheroid formation by 50%
  IC50: 100 to 250 nM
A375-PLX-R cells [7]; A375-PLX-R, above 0.1-0.25 mM
  spheroid formation at higher verteporfin concentrations: nearly completely inhibited
A375-PLX-R cells [7]; co-treatment 0.1 μM verteporfin with 0-1 μM PLX4032, FIG. 5A legend
  PLX4032 suppression of spheroid number on verteporfin co-treatment: restores
A375-PLX-R cells [7]; co-treatment 0.1 mM verteporfin with 0-1 mM PLX4032, FIG. 5A
  PLX4032 suppression of spheroid number on verteporfin co-treatment: restored
[8]; 10 mg/kg verteporfin/20 mg/kg PLX4032-treated tumors, FIG. 7C
  YAP1, YAP1-P, TAZ and TEAD levels in tumors: reduction
[8]; verteporfin 0-100 mg/kg intraperitoneal three times per week, FIGS. 7A-7B
  tumor size: dose-dependent reduction
[8]; verteporfin 10 mg/kg alone
  tumor formation: does not suppress
[8]; verteporfin 10 mg/kg with PLX4032 20 mg/kg
  PLX4032-dependent suppression of tumor formation: restores
